Source: the NIST ThermoML archive (doi:10.1021/je050065n)

Key:
[1] = Molar enthalpy of transition or fusion; conditions: Crystal
[2] = molar heat capacity at constant pressure; conditions: 101.33 kPa

CCCCCCCCCCC(=O)OCC [ethyl undecanoate]
Conditions	Molar enthalpy of transition or fusion [kcal/mol]	Normal melting temperature [°C]	Triple point temperature [K]
Crystal	–	–	259.17
Metastable crystal	–	-21.8	–
[1]	8.628	–	–

[2]
Conditions	molar heat capacity at constant pressure [J/K/mol]
111.58 K, Crystal	173.66
113.84 K, Crystal	175.94
116.71 K, Crystal	178.91
119.57 K, Crystal	181.88
122.42 K, Crystal	185.27
128.15 K, Crystal	190.48
131.02 K, Crystal	194.47
133.86 K, Crystal	198.69
136.66 K, Crystal	198.56
139.44 K, Crystal	201.64
142.19 K, Crystal	204.69
144.9 K, Crystal	207.94
147.59 K, Crystal	211.29
150.26 K, Crystal	213.75
152.89 K, Crystal	217.3
155.51 K, Crystal	220.97
158.1 K, Crystal	224.09
160.67 K, Crystal	229.12
163.21 K, Crystal	233.25
165.73 K, Crystal	236.15
168.24 K, Crystal	230.57
170.74 K, Crystal	232.17
173.23 K, Crystal	234.76
175.7 K, Crystal	236.78
178.15 K, Crystal	239.4
180.59 K, Crystal	242.15
183.01 K, Crystal	244.19
185.42 K, Crystal	245.75
187.81 K, Crystal	248.17
190.18 K, Crystal	251.89
192.55 K, Crystal	256.43
194.9 K, Crystal	257.21
197.24 K, Crystal	257.78
199.56 K, Crystal	262.12
201.88 K, Crystal	266.33
204.18 K, Crystal	269.86
206.47 K, Crystal	268.45
208.75 K, Crystal	272.25
211.01 K, Crystal	276.09
213.26 K, Crystal	279.59
215.5 K, Crystal	279.55
217.73 K, Crystal	283.48
219.95 K, Crystal	287.5
222.16 K, Crystal	290.42
224.36 K, Crystal	293.74
226.54 K, Crystal	297.69
228.71 K, Crystal	302.05
230.87 K, Crystal	307.08
233.01 K, Crystal	312.1
235.14 K, Crystal	318.94
237.26 K, Crystal	327.12
239.36 K, Crystal	337.32
241.44 K, Crystal	349.15
243.49 K, Crystal	366.65
245.51 K, Crystal	390.29
247.49 K, Crystal	425.06
265.23 K, Liquid	419.66
267.18 K, Liquid	419.56
269.12 K, Liquid	420.55
271.06 K, Liquid	421.01
272.99 K, Liquid	421.34
274.93 K, Liquid	422.4
276.86 K, Liquid	423.5
278.79 K, Liquid	424.54
280.72 K, Liquid	424.74
282.65 K, Liquid	425.25
284.57 K, Liquid	425.82
286.49 K, Liquid	426.92
288.42 K, Liquid	427.56
290.34 K, Liquid	427.6
292.25 K, Liquid	429.47
292.35 K, Liquid	429.73
293.82 K, Liquid	430.15
294.17 K, Liquid	430.48
295.74 K, Liquid	431.35
296.09 K, Liquid	431.3
297.65 K, Liquid	432.04
298 K, Liquid	431.45
299.55 K, Liquid	433.51
299.92 K, Liquid	432.3
301.45 K, Liquid	434.67
301.84 K, Liquid	434.2
303.35 K, Liquid	436.03
303.75 K, Liquid	436.09
305.23 K, Liquid	437.3
305.67 K, Liquid	436.86
307.12 K, Liquid	438.29
307.58 K, Liquid	437.94
309 K, Liquid	438.55
309.5 K, Liquid	438.69
310.87 K, Liquid	439.73
311.41 K, Liquid	439.51
312.74 K, Liquid	440.36
313.32 K, Liquid	440.63
314.61 K, Liquid	441.72
315.24 K, Liquid	441.69
316.48 K, Liquid	441.83
317.15 K, Liquid	443.16
318.35 K, Liquid	443.44
320.22 K, Liquid	444.36
322.09 K, Liquid	445.9
323.96 K, Liquid	447.6
325.83 K, Liquid	448.49
327.7 K, Liquid	449.5
329.57 K, Liquid	450.4
331.44 K, Liquid	451.66
333.31 K, Liquid	453.33
335.19 K, Liquid	455.41
337.06 K, Liquid	456.14
338.94 K, Liquid	456.81
340.81 K, Liquid	458.35
342.69 K, Liquid	459.47
344.57 K, Liquid	461
346.45 K, Liquid	462.31
348.34 K, Liquid	463.75
350.22 K, Liquid	465.1
352.11 K, Liquid	466.34
354 K, Liquid	467.34
355.9 K, Liquid	468.59
357.8 K, Liquid	469.5
359.7 K, Liquid	471.05
361.6 K, Liquid	472.21
363.51 K, Liquid	473.69
365.42 K, Liquid	475.18
